In patent publication US9416115B2, “Fused heterocyclic compounds as ion channel modulators” (Gilead Sciences, Inc., priority 2013, dated 2016) one finds inhibition data, which are given here for 18 compounds.

Molecules are shown by their SMILES.

In one assay the target is hNav1.1 (SCN1A) (Homo sapiens, UniProt P35498). The experiment in a line: Use-dependent inhibition of the CNS Nav1.1 sodium channel. Type of assay: cell-based. The conditions noted are these: use-dependent block, 25 Hz, pulse 20, read-out: Nav1.1 UDB 25 Hz 10 uM. On the procedure: HEK-293 cells stably expressing wild-type (WT) hNav1.1 (SCN1A, NCBI# AB09354) were obtained from Millipore (Cat. # CYL3009) were used to record INa. Cells are maintained with standard tissue culture procedures and stable channel expression is maintained with 400 ug/mL G418 in the culture medium. Unless otherwise noted, all reagents are purchased from Sigma-Aldrich (St Louis, Mo., U.S.A.).
Assays measuring Use-Dependent Block (UDB) of Nav1.2 are performed on an automated electrophysiology platform, QPatch 16X or QPatch HT (Sophion Bioscience, Copenhagen, Denmark), using the whole cell patch clamp technique to measure currents through the cell membrane. Series resistance compensation is set to 100% and series resistance and whole-cell compensation are performed automatically. Currents stored in the Sophion Bioscience Oracle database (Sophion Bioscience, Copenhagen, Denmark). Analysis is performed using QPatch Assay software and data are compiled in Excel 2010 (Microsoft, Seattle, Wash., U.S.A.).
The internal (pipette) solution consists of (in mM) 105 CsF, 10 NaF, 20 CsCl, 2 EGTA, 10 HEPES, 10 Dextrose with a pH of 7.35 and osmolarity of 300 mOsmol/kg. The external (bath) solution contains in (mM): 145 NaCl, 4 KCl, 1.8 CaCl2, 1 MgCl2, 10 dextrose, 10 HEPES, with a pH of 7.35 and osmolarity of 310 mOsmol/kg. Experiments are carried out at 23-25° C.
Compound stocks are routinely made by the Gilead Sample Bank in vials to 10 mM in dimethyl sulfoxide (DMSO). In some cases, when compounds are not soluble in DMSO, they are made in 100% ethanol. Stocks are sonicated as necessary. […]
Cells are allowed to stabilize for 10 min after establishment of the whole-cell configuration before current is measured. The test compound is applied 2 times at 60 second intervals. After the second compound addition, a 200 second wait period was imposed to allow for equilibration. Leak currents are subtracted by using an online P/4 procedure and all currents are low-pass Bessel filtered at 5 kHz and digitized at […].
Use-dependent block of Nav1.2 peak current is measured during pulse number 20 of a voltage pulse train (0 mV, 20 ms, 20 pulses, 25 Hz) from a holding potential of −120 mV. Currents are normalized to the peak current recorded in response to the first pulse in each frequency train. The voltage protocol for UDB was performed in the absence and presence of compound and percentage inhibition was calculated with respect to the compound free condition. Results are presented as mean percentage inhibition and data analysis is performed using QPatch Assay Software 4.0, and Excel 2002 (Microsoft, Seattle, Wash., U.S.A.).

Assay [1] concerns the target wild-type human cardiac sodium channel, hNav1.5 (Homo sapiens, UniProt Q14524). The experiment in a line: Late INa screening assay (QPatch whole cell patch clamp, Tefluthrin-induced late current). The conditions noted are these: HEK293 hNav1.5, percent block of late INa. Format: cell-based. On the procedure:
The cardiac late sodium current (Late INa) and peak sodium current (Peak INa) assays are performed on an automated electrophysiology platform, QPatch 16X or QPatch HT (Sophion Bioscience, Copenhagen, Denmark) using the whole cell patch clamp technique to measure currents through the cell membrane. The assay uses an HEK293 (human embryonic kidney) cell line heterologously expressing the wild-type human cardiac sodium channel, hNav1.5, purchased from Millipore (Billerica, Mass.). No beta subunits were coexpressed with the Na channel alpha subunit. Cells are maintained with standard tissue culture procedures and stable channel expression is maintained with 400 μg/mL Geneticin in the culture medium. Experiments are carried out at 23-25° C.
For both the Late INa and Peak INa assays, series resistance compensation is set to 100% and series resistance and whole-cell compensation are performed automatically. Currents are digitized at 25 kHz and low-pass filtered at 5 kHz and stored in the Sophion Bioscience Oracle database (Sophion Bioscience, Copenhagen, Denmark). Analysis is performed using QPatch Assay software and data are compiled in Excel 2010 (Microsoft, Seattle, Wash., U.S.A.).
Compound stocks are routinely made by the Gilead Sample Bank in vials to 10 mM in dimethyl sulfoxide (DMSO). In some cases, when compounds are not soluble in DMSO, they are made in 100% ethanol. Stocks are sonicated as necessary. The extracellular solution for screening Late INa is composed of: 140 mM NaCl, 4 mM KCl, 1.8 mM CaCl2, 1 mM MgCl2, 10 mM HEPES and 10 mM Dextrose with pH adjusted to 7.35 using NaOH. The intracellular solution contains: 105 mM CsF, 20 mM CsCl, 10NaF, 2 mM EGTA, 10 mM HEPES and 10 mM Dextrose with pH adjusted to 7.35 with CsOH. Compounds are diluted in extracellular solution using a MicroLab Nimbus (Hamilton Robotics, Reno, Nev.) to between 0.3 and 3 μM in glass vials and transferred to glass well plates before robotic addition to the cells. The 0 mM Na extracellular solution (0Na-ECF) used at the end of each experiment for the Late INa and Peak INa assays to measure baseline current contains: 140 Choline-Cl; 4 mM KCl, 1.8 mM CaCl2; 1 mM MgCl2; 10 mM HEPES and 10 mM Dextrose with pH was adjusted to 7.35 with CsOH.
For the Late INa assay, sodium channels are activated every 10 seconds (0.1 Hz) by depolarizing the cell membrane to −20 mV for 250 milliseconds (ms) from a holding potential of −120 mV.
Compounds were tested to determine their activity in blocking the late sodium current. Late INa was generated by adding 10 μM Tefluthrin (pyrethroid) to the extracellular solution. For the purposes of the screening, Late INa is defined as the mean current between […] during the voltage step to −20 mV. After establishing the whole cell recording configuration, Late INa activator is added to each well 4 times over a 15 minute period so that the late component of the Na current reaches a stable value. Compounds were then added (typically at 0.3 or 1 μM), in the presence of the Late Na^+ activator, with 3 additions over the course of 5 minutes. Measurements were made at the end of exposure to the third compound addition and values were normalized to the current level when all Na^+ was removed from the extracellular solution after two additions of 0Na-ECF.
Results are reported as percent block of late INa and results were analyzed by incorporating rundown correction for the Late INa.
In general terms: Patch clamp records ionic current or voltage across a cell membrane.

wild-type human cardiac sodium channel, hNav1.5, sequence (Q14524 whole entry): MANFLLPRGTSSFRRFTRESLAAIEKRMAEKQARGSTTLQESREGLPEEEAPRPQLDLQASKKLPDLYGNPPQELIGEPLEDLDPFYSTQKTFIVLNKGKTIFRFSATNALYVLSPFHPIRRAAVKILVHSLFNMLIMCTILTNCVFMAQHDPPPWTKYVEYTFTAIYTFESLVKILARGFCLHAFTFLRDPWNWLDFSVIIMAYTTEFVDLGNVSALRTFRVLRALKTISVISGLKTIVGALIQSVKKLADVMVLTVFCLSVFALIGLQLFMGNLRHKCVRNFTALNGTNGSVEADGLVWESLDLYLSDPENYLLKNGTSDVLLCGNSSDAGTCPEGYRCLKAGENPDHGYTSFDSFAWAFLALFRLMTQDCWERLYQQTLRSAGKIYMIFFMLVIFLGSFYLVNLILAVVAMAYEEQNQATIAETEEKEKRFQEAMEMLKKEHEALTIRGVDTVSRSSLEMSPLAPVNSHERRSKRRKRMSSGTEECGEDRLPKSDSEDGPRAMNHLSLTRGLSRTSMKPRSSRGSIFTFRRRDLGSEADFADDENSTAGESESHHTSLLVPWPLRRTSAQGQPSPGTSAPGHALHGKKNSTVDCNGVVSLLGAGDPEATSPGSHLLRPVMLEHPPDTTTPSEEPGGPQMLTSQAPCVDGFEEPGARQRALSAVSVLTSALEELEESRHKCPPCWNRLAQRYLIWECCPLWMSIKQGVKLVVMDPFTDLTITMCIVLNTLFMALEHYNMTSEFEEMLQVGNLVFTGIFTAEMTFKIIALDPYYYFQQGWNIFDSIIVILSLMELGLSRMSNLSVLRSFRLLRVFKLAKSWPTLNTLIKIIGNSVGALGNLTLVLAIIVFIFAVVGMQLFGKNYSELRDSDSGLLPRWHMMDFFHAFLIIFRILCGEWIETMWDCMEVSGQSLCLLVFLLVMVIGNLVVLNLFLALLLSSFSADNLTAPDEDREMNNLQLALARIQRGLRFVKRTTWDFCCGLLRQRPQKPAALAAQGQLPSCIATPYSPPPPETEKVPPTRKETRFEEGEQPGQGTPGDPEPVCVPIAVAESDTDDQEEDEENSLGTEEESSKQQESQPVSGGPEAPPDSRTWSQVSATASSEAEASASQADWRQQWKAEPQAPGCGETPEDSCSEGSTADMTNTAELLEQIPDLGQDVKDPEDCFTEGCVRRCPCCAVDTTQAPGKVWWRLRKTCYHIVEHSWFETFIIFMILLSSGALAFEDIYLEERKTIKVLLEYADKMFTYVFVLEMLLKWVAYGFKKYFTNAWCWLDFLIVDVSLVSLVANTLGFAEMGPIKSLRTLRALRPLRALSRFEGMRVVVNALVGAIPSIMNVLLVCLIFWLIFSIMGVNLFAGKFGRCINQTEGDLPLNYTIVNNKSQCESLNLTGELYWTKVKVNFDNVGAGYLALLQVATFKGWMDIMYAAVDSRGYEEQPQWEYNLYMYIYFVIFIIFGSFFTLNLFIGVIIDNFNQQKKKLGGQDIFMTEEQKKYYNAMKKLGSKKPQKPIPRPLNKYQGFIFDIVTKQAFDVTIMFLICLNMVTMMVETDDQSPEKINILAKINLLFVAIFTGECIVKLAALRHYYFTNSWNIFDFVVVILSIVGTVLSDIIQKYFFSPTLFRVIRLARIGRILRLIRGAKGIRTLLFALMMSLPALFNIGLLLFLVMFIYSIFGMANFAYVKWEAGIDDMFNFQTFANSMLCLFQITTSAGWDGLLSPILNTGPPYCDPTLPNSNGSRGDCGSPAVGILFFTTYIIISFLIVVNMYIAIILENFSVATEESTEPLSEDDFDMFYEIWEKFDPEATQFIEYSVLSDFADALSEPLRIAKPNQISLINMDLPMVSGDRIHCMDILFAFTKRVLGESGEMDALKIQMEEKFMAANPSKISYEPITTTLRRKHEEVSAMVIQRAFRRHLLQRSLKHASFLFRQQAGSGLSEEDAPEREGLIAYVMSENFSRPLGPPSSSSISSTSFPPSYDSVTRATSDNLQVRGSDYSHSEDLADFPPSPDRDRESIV

As to `COCCOc1noc2ccc(-c3ccc(OC(F)(F)F)cc3)cc12` [Example 60, 3-(2-methoxyethoxy)-5-(4-(trifluoromethoxy)phenyl)benzo[d]isoxazole], the inhibition at 10 µM at hNav1.1 (SCN1A) was found to be 27%. In assay [1], this compound yielded an inhibition at 0.3 µM of 16.8% and an inhibition at 1 µM of 57.2%.

Take `Cc1nnc(COc2noc3ccc(-c4ccc(OC(F)(F)F)cc4)cc23)s1` [Example 101, 3-((5-methyl-1,3,4-thiadiazol-2-yl)methoxy)-5-(4-(trifluoromethoxy)phenyl)benzo[d]isoxazole]: the inhibition at 10 µM on hNav1.1 (SCN1A) is under 5%. For the same compound, in assay [1], the inhibition at 1 µM was 54.6%.

As to `FC(F)(F)Oc1ccc(-c2ccc3onc(OC[C@H]4COCCN4)c3c2)cc1` [Example 114, (R)-3-(morpholin-3-ylmethoxy)-5-(4-(trifluoromethoxy)phenyl)benzo[d]isoxazole], the inhibition at 10 µM at hNav1.1 (SCN1A) came out at 87.1%. Further, in assay [1], the inhibition at 0.3 µM is 22.5% and the inhibition at 1 µM stood at 61.2%.

Turning to `FC(F)(F)Oc1cccc(-c2ccc3onc(OCc4ncccn4)c3c2)c1` [Example 10, 3-(pyrimidin-2-ylmethoxy)-5-(3-(trifluoromethoxy)phenyl)benzo[d]isoxazole], the inhibition at 10 µM at hNav1.1 (SCN1A) was under 5%. The compound further had an inhibition at 1 µM in assay [1] of 41%.

On to `FC(F)(F)Oc1ccc(-c2ccc3onc(OCc4ncco4)c3c2)cc1` [Example 53, 3-(oxazol-2-ylmethoxy)-5-(4-(trifluoromethoxy)phenyl)benzo[d]isoxazole], for which the inhibition at 10 µM at hNav1.1 (SCN1A) is under 5%. In assay [1], this compound displayed an inhibition at 0.3 µM of 31.1% and an inhibition at 1 µM of 57%.

As to `CN1CCN(c2noc3ccc(-c4ccc(OC(F)(F)F)cc4)cc23)CC1` [Example 127, 3-(4-methylpiperazin-1-yl)-5-(4-(trifluoromethoxy)phenyl)benzo[d]isoxazole], the inhibition at 10 µM on hNav1.1 (SCN1A) came out at 82.8%. Moreover, the inhibition at 1 µM in assay [1] was found to be 37.4%.

In the case of `COc1cc(OC(F)(F)F)ccc1-c1ccc2onc(OCc3ncccn3)c2c1` [Example 4, 5-(2-methoxy-4-(trifluoromethoxy)phenyl)-3-(pyrimidin-2-ylmethoxy)benzo[d]isoxazole], the inhibition at 10 µM at hNav1.1 (SCN1A) was 14.2%. Moreover, in assay [1], the inhibition at 0.3 µM amounted to 29.7% and the inhibition at 1 µM turned out to be 62.9%.

For the compound `FC(F)(F)Oc1ccc(-c2ccc3onc(N4CCOCC4)c3c2)cc1` [Example 130, 3-morpholino-5-(4-(trifluoromethoxy)phenyl)benzo[d]isoxazole], the inhibition at 10 µM at hNav1.1 (SCN1A) was under 5%. Moreover, the inhibition at 1 µM in assay [1] was 38.3%.

Turning to `Cc1nnc(COc2noc3ccc(-c4ccc(OC(F)(F)F)cc4)cc23)o1` [Example 99, 3-((5-methyl-1,3,4-oxadiazol-2-yl)methoxy)-5-(4-(trifluoromethoxy)phenyl)benzo[d]isoxazole], the inhibition at 10 µM at hNav1.1 (SCN1A) is 30%. For the same compound, in assay [1], the inhibition at 0.3 µM is 42.3% and the inhibition at 1 µM was determined as 72.3%.

Regarding `Nc1noc2ccc(-c3ccc(OC(F)(F)F)cc3)cc12` [Example 147, 5-(4-(trifluoromethoxy)phenyl)benzo[d]isoxazol-3-amine], the inhibition at 10 µM on hNav1.1 (SCN1A) amounted to 32%. In addition, the inhibition at 1 µM in assay [1] is 45.4%.

On to `Cc1cnc(COc2noc3ccc(-c4ccc(OC(F)(F)F)cc4)cc23)cn1` [Example 73, 3-((5-methylpyrazin-2-yl)methoxy)-5-(4-(trifluoromethoxy)phenyl)benzo[d]isoxazole], for which the inhibition at 10 µM on hNav1.1 (SCN1A) came to 10.1%. In assay [1], this compound gave an inhibition at 0.3 µM of 20.4% and an inhibition at 1 µM of 66.2%.

In the case of `FC(F)(F)Oc1ccc(-c2ccc3onc(NCC4CC4)c3c2)cc1` [Example 128, N-(cyclopropylmethyl)-5-(4-(trifluoromethoxy)phenyl)benzo[d]isoxazol-3-amine], the inhibition at 10 µM at hNav1.1 (SCN1A) is under 5%. In assay [1], this compound gave an inhibition at 1 µM of 42%.

Consider `COc1cc2onc(OCc3ncccn3)c2cc1-c1ccc(F)c(Cl)c1` [Example 15, 5-(3-chloro-4-fluorophenyl)-6-methoxy-3-(pyrimidin-2-ylmethoxy)benzo[d]isoxazole], for which the inhibition at 10 µM on hNav1.1 (SCN1A) is under 5%. In addition, the inhibition at 1 µM in assay [1] amounted to 32.2%.

Consider `COc1cc(-c2ccc(OC(F)(F)F)cc2)cc2c(OCc3ncccn3)noc12` [Example 22, 7-methoxy-3-(pyrimidin-2-ylmethoxy)-5-(4-(trifluoromethoxy)phenyl)benzo[d]isoxazole], for which the inhibition at 10 µM at hNav1.1 (SCN1A) is 28.1%. Further, in assay [1], the inhibition at 0.3 µM was found to be 17.7% and the inhibition at 1 µM was 55.9%.

As to `Cc1cc(-c2ccc(OC(F)(F)F)cc2)cc2c(OCc3ncccn3)noc12` [Example 16, 7-methyl-3-(pyrimidin-2-ylmethoxy)-5-(4-(trifluoromethoxy)phenyl)benzo[d]isoxazole], the inhibition at 10 µM on hNav1.1 (SCN1A) worked out at 27.3%. The same compound yielded an inhibition at 1 µM in assay [1] of 54.2%.

With `COc1ccnc(COc2noc3ccc(-c4ccc(OC(F)(F)F)cc4)cc23)n1` [Example 67, 3-((4-methoxypyrimidin-2-yl)methoxy)-5-(4-(trifluoromethoxy)phenyl)benzo[d]isoxazole], the inhibition at 10 µM on hNav1.1 (SCN1A) is 5.26%. In addition, in assay [1], the inhibition at 0.3 µM was found to be 54.4% and the inhibition at 1 µM turned out to be 77.4%.

As for `COc1ccnc(CNc2noc3ccc(-c4ccc(OC(F)(F)F)cc4)cc23)n1` [Example 149, N-((4-methoxypyrimidin-2-yl)methyl)-5-(4-(trifluoromethoxy)phenyl)benzo[d]isoxazol-3-amine], on hNav1.1 (SCN1A), the inhibition at 10 µM amounted to 50%. Also, in assay [1], the inhibition at 0.3 µM turned out to be 50.9% and the inhibition at 1 µM turned out to be 87.6%.

Take `OCc1cn(-c2noc3ccc(-c4ccc(OC(F)(F)F)cc4)cc23)cn1` [Example 146, (1-(5-(4-(trifluoromethoxy)phenyl)benzo[d]isoxazol-3-yl)-1H-imidazol-4-yl)methanol]: the inhibition at 10 µM at hNav1.1 (SCN1A) came to 87.3%. In assay [1], the inhibition at 1 µM is 48.4%.
